The species entered for one experiment is Rattus norvegicus. Description: Selectivity index, ratio of Ki for rat MAOA to Ki for rat MAOB.
For experiment [1], the target named is T1, Amine oxidase [flavin-containing] A (Rattus norvegicus, UniProt P21396).
T1 sequence (P21396 whole entry): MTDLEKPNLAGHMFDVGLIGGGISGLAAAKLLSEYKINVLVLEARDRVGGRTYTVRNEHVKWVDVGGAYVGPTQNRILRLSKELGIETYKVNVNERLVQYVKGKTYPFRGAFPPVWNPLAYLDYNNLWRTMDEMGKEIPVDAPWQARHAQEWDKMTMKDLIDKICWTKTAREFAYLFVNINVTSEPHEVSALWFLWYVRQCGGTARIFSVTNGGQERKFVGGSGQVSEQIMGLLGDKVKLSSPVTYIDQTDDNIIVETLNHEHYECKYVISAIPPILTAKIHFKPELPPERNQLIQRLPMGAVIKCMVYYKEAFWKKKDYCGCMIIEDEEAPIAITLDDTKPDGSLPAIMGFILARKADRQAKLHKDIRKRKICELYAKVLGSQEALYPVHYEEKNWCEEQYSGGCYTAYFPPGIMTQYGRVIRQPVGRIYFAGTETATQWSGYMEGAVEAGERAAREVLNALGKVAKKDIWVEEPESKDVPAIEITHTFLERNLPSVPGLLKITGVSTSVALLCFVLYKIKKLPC
The experiment is described as follows: Competitive inhibition of MAOA in rat liver homogenate by spectrophotometrically. In kind it is tissue-based.

The target in experiment [2] is T2, Amine oxidase [flavin-containing] B (Rattus norvegicus, UniProt P19643).
T2 sequence (P19643 whole entry): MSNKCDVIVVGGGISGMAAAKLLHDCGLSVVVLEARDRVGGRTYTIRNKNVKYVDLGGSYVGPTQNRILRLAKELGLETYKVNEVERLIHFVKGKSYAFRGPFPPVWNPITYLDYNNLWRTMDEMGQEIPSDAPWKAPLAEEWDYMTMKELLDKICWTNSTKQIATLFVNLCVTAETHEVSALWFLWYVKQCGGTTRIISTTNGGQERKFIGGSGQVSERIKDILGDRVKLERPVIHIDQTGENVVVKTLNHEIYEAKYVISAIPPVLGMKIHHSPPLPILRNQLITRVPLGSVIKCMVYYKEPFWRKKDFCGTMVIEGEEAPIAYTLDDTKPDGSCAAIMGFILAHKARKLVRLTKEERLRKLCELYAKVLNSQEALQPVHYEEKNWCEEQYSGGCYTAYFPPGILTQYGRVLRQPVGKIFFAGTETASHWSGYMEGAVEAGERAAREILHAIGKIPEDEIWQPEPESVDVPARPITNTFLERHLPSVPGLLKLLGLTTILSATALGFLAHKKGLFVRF
Description: Competitive inhibition of MAOB in rat liver homogenate by spectrophotometrically. Type of experiment: tissue-based.

SMILES strings stand for the structures.

By IC50 is commonly meant the concentration needed to halve the response being measured. In general, Ki refers to the dissociation constant of the complex between target and ligand, obtained from inhibition or displacement. Low readings indicate tighter binding, high ones weaker binding. As to `CNC(=S)N1NC2=C(CCCC2)C1c1cccs1` (configuration not stated), the Ratio Ki in the experiment filed under Rattus norvegicus was determined as 2.96. In addition, the IC50 in experiment [1] was 62.3 µM; in experiment [2] it was 2.61 µM. Besides, the Ki in experiment [1] is 5.01 µM; in experiment [2] it was 1.69 µM.
For `CCNC(=S)N1NC2=C(CCCC2)C1c1cccs1` (configuration not stated) the same measures were 0.57, 3.01 µM, 90.1 µM, 1.72 µM and 3.01 µM.
Take `O=C(NCCN1CCOCC1)c1ccc(Cl)cc1` [MOCLOBEMIDE]: in experiment [2], the IC50 was found to be 89.5 µM and affinity was put at a Ki of 1.08 µM.
As for `S=C(Nc1ccccc1)N1NC2=C(CCCC2)C1c1ccco1` (configuration not stated), the Ratio Ki in the experiment filed under Rattus norvegicus was 0.0034. For the same compound, in experiment [1], the IC50 is 0.78 µM and the inhibitory constant (Ki) came to 0.00422 µM. For the same compound, in experiment [2], the IC50 turned out to be 80.4 µM and the affinity corresponds to a Ki of 1.23 µM.
As to `NC(=S)N1NC2=C(CCCC2)C1c1ccco1` (configuration not stated), the Ratio Ki in the experiment listed under Rattus norvegicus came to 4060. Moreover, the IC50 in experiment [1] worked out at 80.2 µM; in experiment [2], 1.37 µM. Moreover, the Ki in experiment [1] was 3.9 µM; in experiment [2] it was 0.00096 µM.
For `CNC(=S)N1NC2=C(CCCC2)C1c1ccco1` (configuration not stated) the same measures were 4.2, 108 µM, 2.99 µM, 8.82 µM and 2.1 µM.
The like results for `S=C(Nc1ccccc1)N1NC2=C(CCCC2)C1c1cccs1` (configuration not stated) were, in that order, 0.004, 0.7 µM, 75.1 µM, 0.0391 µM and 92.3 µM.
For `CCNC(=S)N1NC2=C(CCCC2)C1c1ccco1` (configuration not stated) the same measures were 2.19, 110 µM, 2.77 µM, 4.26 µM and 1.95 µM.
As for `NC(=S)N1NC2=C(CCCC2)C1c1cccs1` (configuration not stated), the Ratio Ki in the experiment listed under Rattus norvegicus came out at 3320. Further, the IC50 in experiment [1] was 95.2 µM; in experiment [2] it was 1.26 µM. Also, the Ki in experiment [1] stood at 2.99 µM; in experiment [2], 0.0009 µM.

Values taken from ChEMBL document CHEMBL1152549, “Synthesis and molecular modeling of some novel hexahydroindazole derivatives as potent monoamine oxidase inhibitors” (Bioorg Med Chem, 2009).
